# According to PubChem BioAssay AID743319 (Broad Institute, 2014):
# Active and inactive are the calls of the source.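 Rule for the calls: active = fitted curve reaches 200% activation at or below the highest valid dose tested for that compound; inconclusive = flat fit between 30 and 70% activation, or unreliable fit; inactive = the rest.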
# Biological target: Endoplasmic reticulum aminopeptidase 2 (Homo sapiens) (UniProt Q6P179)
# Test: enhanced ERAP2 Arg-AMC hydrolysis – biochemical, fluorescence plate reader, cherry-picked samples, selectivity assay for selective ERAP1 modulator project, dose response (AID 743319)
# Conditions: recombinant ERAP2, Arg-AMC cleavage fluorescence, 1 h; at 11 µM (top of the series)
# Chain of Endoplasmic reticulum aminopeptidase 2 (Homo sapiens) (Q6P179 whole entry, looked up): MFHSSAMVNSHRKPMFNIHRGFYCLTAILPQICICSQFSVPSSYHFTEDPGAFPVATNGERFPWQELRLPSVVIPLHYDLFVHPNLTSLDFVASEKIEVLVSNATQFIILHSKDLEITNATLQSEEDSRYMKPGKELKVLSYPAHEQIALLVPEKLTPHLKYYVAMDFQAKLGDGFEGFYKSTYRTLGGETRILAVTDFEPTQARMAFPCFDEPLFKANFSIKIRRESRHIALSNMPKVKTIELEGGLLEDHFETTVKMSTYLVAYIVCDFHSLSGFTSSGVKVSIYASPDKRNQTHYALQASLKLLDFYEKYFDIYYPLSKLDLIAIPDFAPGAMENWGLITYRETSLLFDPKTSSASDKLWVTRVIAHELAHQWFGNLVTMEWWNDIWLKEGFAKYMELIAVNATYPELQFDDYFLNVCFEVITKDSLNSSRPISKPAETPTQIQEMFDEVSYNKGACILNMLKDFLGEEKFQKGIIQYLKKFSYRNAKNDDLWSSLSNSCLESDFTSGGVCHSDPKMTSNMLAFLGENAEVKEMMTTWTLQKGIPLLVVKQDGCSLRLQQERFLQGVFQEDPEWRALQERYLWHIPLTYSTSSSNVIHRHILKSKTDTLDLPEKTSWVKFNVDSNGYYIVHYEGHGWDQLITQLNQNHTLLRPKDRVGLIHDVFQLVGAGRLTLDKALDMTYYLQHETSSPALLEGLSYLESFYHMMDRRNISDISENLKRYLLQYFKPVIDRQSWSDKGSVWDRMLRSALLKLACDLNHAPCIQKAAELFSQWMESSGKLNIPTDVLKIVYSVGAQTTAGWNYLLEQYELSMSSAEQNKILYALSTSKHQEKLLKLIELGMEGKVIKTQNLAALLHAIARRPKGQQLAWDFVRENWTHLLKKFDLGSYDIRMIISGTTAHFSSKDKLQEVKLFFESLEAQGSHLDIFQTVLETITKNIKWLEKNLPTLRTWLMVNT
row,Compound,activation
1,COc1ccc(CN(C)C[C@@H]2OCCCC[C@@H](C)Oc3ccc(NS(=O)(=O)c4c(C)noc4C)cc3C(=O)N([C@@H](C)CO)C[C@@H]2C)cc1,-1% (inactive)
2,CCC(=O)N(C)C[C@@H]1Oc2ncc(C#Cc3ccncc3)cc2C(=O)N([C@@H](C)CO)C[C@@H]1C,-17.3% (inactive)
3,Cc1noc(C)c1S(=O)(=O)Nc1ccc2c(c1)C(=O)N([C@H](C)CO)C[C@@H](C)[C@@H](CN(C)CC1CCCCC1)OCCCC[C@@H](C)O2,1.44% (inactive)
4,CC(=O)N1CCN(C(=O)C2(NC(=O)Nc3ccc(C)cc3)CCCCC2)CC1,2.05% (inactive)
